Our source for the IC50 and EC50 values is patent EP4567031A1, “HPK1 INHIBITOR, PREPARATION METHOD THEREFOR, AND USE THEREOF” (Beijing Earthwise Technology Co., Ltd., priority 2022, dated 2024).

One assay concerns the target HPK1 (Homo sapiens, UniProt Q92918). Kind of assay: HPK1 HTRF kinase assay. Type of assay: biochemical. The conditions noted are these: 1000 µM ATP, 50 nM HPK1, STK1 substrate. On the procedure:
The reaction was initiated by adding 50 nM HPK1. After 120 minutes of reaction, the assay was terminated by adding 10 µL of Detection Mix.
The ratio of the signal at 665 nm to the signal at 615 nm was converted to the percentage of inhibition. Inhibition % = (maximum value - sample value) / (maximum value - minimum value)×100. The minimum value refers to the value measured in a well without enzyme but with DMSO and substrate, and the maximum value refers to the value measured in a well with DMSO, enzyme and substrate. IC50 values were calculated by XLFit (version 5.3.1.3) in Excel. Equation: Y = Bottom + (Top - Bottom) / (1 + (IC50/X) ^ HillSlope).
In general terms: Time-resolved FRET reads energy transfer from a long-lived donor to a nearby acceptor.

The next assay relates to human Pan T cells. Briefly: Human Pan T cell IL-2 ELISA. Conditions: Homo sapiens, T-cell, 48 h, Anti-CD3 and Anti-CD28, supernatant IL-2 ELISA, read-out: IL-2 release, EC50. Type of assay: cell-based. In short, it runs like this: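 Human Pan T cells (1×10^6 cells/ml) stimulated with plate-bound anti-CD3 plus anti-CD28 and treated 48 h with compound at 9 final concentrations, 39.063–10000 nM. Supernatant IL-2 by ELISA, expressed as fold over DMSO wells; EC50 from four-parameter logistic fit.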
A general note: ELISA stands for enzyme-linked immunosorbent assay.

A word on the IC50: it is the concentration that inhibits the measured activity by half. The term EC50 denotes the concentration needed to bring the measured effect to its halfway point.

Structures are written as SMILES. Read-outs that look alike come from different tables or passages of the source.

Sequence of HPK1 (Q92918 whole entry, species assumed): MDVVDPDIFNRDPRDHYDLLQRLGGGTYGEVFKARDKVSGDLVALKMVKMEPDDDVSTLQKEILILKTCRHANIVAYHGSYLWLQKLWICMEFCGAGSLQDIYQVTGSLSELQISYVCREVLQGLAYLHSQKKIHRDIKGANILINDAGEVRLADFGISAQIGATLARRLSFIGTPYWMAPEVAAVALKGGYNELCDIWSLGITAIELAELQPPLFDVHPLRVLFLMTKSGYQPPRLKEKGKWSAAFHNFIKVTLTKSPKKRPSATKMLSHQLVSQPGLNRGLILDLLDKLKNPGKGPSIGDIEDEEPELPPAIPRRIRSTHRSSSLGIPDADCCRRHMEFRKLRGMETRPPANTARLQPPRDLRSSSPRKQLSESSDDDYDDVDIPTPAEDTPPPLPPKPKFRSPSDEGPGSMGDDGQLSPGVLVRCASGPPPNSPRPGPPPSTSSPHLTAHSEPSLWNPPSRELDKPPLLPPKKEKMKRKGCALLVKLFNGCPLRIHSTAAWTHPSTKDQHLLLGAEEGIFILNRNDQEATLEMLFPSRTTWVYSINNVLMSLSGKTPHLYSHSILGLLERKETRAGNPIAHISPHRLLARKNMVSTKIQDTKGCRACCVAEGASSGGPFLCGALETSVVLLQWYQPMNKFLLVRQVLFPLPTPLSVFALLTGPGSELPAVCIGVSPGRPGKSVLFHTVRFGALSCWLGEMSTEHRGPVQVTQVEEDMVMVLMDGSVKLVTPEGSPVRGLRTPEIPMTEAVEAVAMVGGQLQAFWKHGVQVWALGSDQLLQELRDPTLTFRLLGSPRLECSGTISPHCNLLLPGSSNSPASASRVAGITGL

Regarding `Cc1ccn2c(-c3cc4c(c5c3CNC5=O)Nc3ccc(N5CCOC(C(C)(C)O)C5)cc3C4(C)C)cnc2c1F` (single isomer, unassigned) [Example 88], the IC50 against HPK1 (HPK1, IC50 (nM)) worked out at 11.6 nM. Moreover, the EC50 with human Pan T cells came to 12.3 nM.

For `Cc1ccn2c(-c3cc4c(c5c3CNC5=O)Nc3ccc(N5CCOC(C(C)(C)O)C5)cc3C4(C)C)cnc2c1F` (single isomer, unassigned) [Example 89], at HPK1 (HPK1, IC50 (nM)), the IC50 was 8.13 nM.

Turning to `COC1CCCn2c(-c3cc4c(c5c3CNC5=O)Nc3ccc(N5CCOCC5)cc3C4(C)C)cnc21` (single isomer, unassigned) [Example 90], the IC50 at HPK1 (read-out: HPK1, IC50) was determined as 6.72 nM. For the same compound, in the assay on human Pan T cells, the EC50 was found to be 6.3 nM.

`COC1CCCn2c(-c3cc4c(c5c3CNC5=O)Nc3ccc(N5CCOCC5)cc3C4(C)C)cnc21` (single isomer, unassigned) [Example 91] gave an IC50 against HPK1 (HPK1, IC50 (nM)) of 4.24 nM.

With `CC1(C)c2cc(N3CCOC(C(C)(C)O)C3)ccc2Nc2c1cc(-c1cnc3cccnn13)c1c2C(=O)NC1` (stereo not shown) [Example 19], the IC50 at HPK1 (read-out: HPK1, IC50) amounted to 6.31 nM. In the assay with human Pan T cells, the EC50 stood at 2.11 nM.

`CC1(C)c2cc(N3CCOC(C(C)(C)O)C3)ccc2Nc2c1cc(-c1cnn3cccnc13)c1c2C(=O)NC1` (stereo not shown) [Example 22]: at HPK1 (read-out: HPK1, IC50), the IC50 was 11.2 nM. The EC50 with human Pan T cells is 2.2 nM.

In the case of `CC1(C)c2cc(N3CCOC(C(C)(C)O)C3)ccc2Nc2c1cc(-c1cnc3c(C#N)cccn13)c1c2C(=O)NC1` (stereo not shown) [Example 23], the IC50 at HPK1 (read-out: HPK1, IC50) came out at 3.65 nM. In the assay on human Pan T cells, the EC50 is less than 1.5 nM.

In the case of `COc1ccnn2c(-c3cc4c(c5c3CNC5=O)Nc3ccc(N5CCOC(C(C)(C)O)C5)cc3C4(C)C)cnc12` (stereo not shown) [Example 24], the IC50 at HPK1 (read-out: HPK1, IC50) was found to be 11.8 nM. Moreover, the EC50 with human Pan T cells came out at 1.83 nM.

Turning to `CC1(C)c2cc(N3CCOCC3)ncc2Nc2c1cc(-c1cnn3cccnc13)c1c2C(=O)NC1` [Example 26], the IC50 on HPK1 (read-out: HPK1, IC50) was found to be 14.5 nM. In addition, in the assay with human Pan T cells, the EC50 is 14.9 nM.

Turning to `COc1cccc2c(-c3cc4c(c5c3CNC5=O)Nc3cnc(N5CCOCC5)cc3C4(C)C)cnn12` [Example 27], at HPK1 (read-out: HPK1, IC50), the IC50 was determined as 11.7 nM. Besides, in the assay with human Pan T cells, the EC50 came out at 1.79 nM.

As to `CC1(C)c2cc(N3CCOCC3)cnc2Nc2c1cc(-c1cnn3cccnc13)c1c2C(=O)NC1` [Example 28], the IC50 on HPK1 (read-out: HPK1, IC50) is 21.5 nM. The EC50 with human Pan T cells is 95.9 nM.

For the compound `CC1(C)c2cc(-c3cnn4cccnc34)c3c(c2Nc2ccc(N4CCOCC4)nc21)C(=O)NC3` [Example 29], the IC50 at HPK1 (read-out: HPK1, IC50) amounted to 10.1 nM. For the same compound, the EC50 in the assay with human Pan T cells came to 27.9 nM.

Take `Cn1ccc(-c2cc3c(c4c2CNC4=O)Nc2ccc(N4CCOC(C(C)(C)O)C4)cc2C3(C)C)cc1=O` (stereo not shown) [Example 32]: the IC50 on HPK1 (read-out: HPK1, IC50) amounted to 16.4 nM. The EC50 in the assay with human Pan T cells was 12.3 nM.

In the case of `Cc1ccnn2c(-c3cc4c(c5c3CNC5=O)Nc3ccc(N5CCOC(C(C)(C)O)C5)cc3C4(C)C)cnc12` (stereo not shown) [Example 33], the IC50 at HPK1 (read-out: HPK1, IC50) is 11.4 nM.

As to `CC1(C)c2cc(N3CCOCC3)ccc2Nc2c1cc(-c1cnc3c(C#N)cccn13)c1c2C(=O)NC1` [Example 34], the IC50 at HPK1 (read-out: HPK1, IC50) is 11.5 nM. Moreover, in the assay on human Pan T cells, the EC50 was found to be 2.41 nM.

As for `CC1(C)c2cc(N3CCOCC3)ccc2Nc2c1cc(-c1cnn3ccncc13)c1c2C(=O)NC1` [Example 35], the IC50 on HPK1 (read-out: HPK1, IC50) was 12.8 nM. For the same compound, the EC50 in the assay with human Pan T cells is 14.5 nM.

Consider `CC1(C)c2cc(N3CCOCC3)ccc2Nc2c1cc(-c1cnn3c1CCCC3)c1c2C(=O)NC1` [Example 36], for which, on HPK1 (read-out: HPK1, IC50), the IC50 was determined as 11.8 nM. In addition, the EC50 in the assay on human Pan T cells is 6.33 nM.

As to `CC1(C)c2cc(N3CCOCC3)ccc2Nc2c1cc(-c1cnn3ccccc13)c1c2C(=O)NC1` [Example 37], at HPK1 (read-out: HPK1, IC50), the IC50 stood at 7.98 nM. Also, in the assay with human Pan T cells, the EC50 stood at 2.27 nM.

On to `Cn1ccc2c(-c3cc4c(c5c3CNC5=O)Nc3ccc(N5CCOCC5)cc3C4(C)C)cncc21` [Example 38], for which, at HPK1 (read-out: HPK1, IC50), the IC50 was determined as 12.3 nM. In addition, the EC50 with human Pan T cells came to 4.7 nM.

For `CC1(C)c2cc(N3CCOCC3)ccc2Nc2c1cc(-c1nnc3c(C#N)cccn13)c1c2C(=O)NC1` [Example 39], the IC50 on HPK1 (read-out: HPK1, IC50) worked out at 39 nM. Further, the EC50 with human Pan T cells was 16.8 nM.

For `Cc1ccn2c(-c3cc4c(c5c3CNC5=O)Nc3ccc(N5CCC(O)CC5)cc3C4(C)C)cnc2c1F` [Example 40], at HPK1 (read-out: HPK1, IC50), the IC50 was 12.3 nM. Further, in the assay on human Pan T cells, the EC50 came out at 5.07 nM.

Turning to `Cc1ccn2c(-c3cc4c(c5c3CNC5=O)Nc3ccc(N5CCOC(CO)C5)cc3C4(C)C)cnc2c1F` (stereo not shown) [Example 46], the IC50 at HPK1 (read-out: HPK1, IC50) came out at 10.3 nM. Further, the EC50 with human Pan T cells is 7.73 nM.

On to `CN1CCN(Cc2ccc3c(c2)C(C)(C)c2cc(-c4cnn5cccnc45)c4c(c2N3)C(=O)NC4)CC1` [Example 50], for which the IC50 on HPK1 (read-out: HPK1, IC50) was 8.71 nM. Also, the EC50 in the assay with human Pan T cells amounted to 19 nM.

Consider `CC1(C)c2cc(CN3CCOCC3)ccc2Nc2c1cc(-c1cnn3cccnc13)c1c2C(=O)NC1` [Example 51], for which the IC50 on HPK1 (read-out: HPK1, IC50) amounted to 11.4 nM. Besides, in the assay with human Pan T cells, the EC50 was 58.8 nM.

On to `CC1(C)c2cc(C3COCCN3)ccc2Nc2c1cc(-c1cnn3cccnc13)c1c2C(=O)NC1` (stereo not shown) [Example 52], for which, at HPK1 (read-out: HPK1, IC50), the IC50 turned out to be 8.2 nM. Also, in the assay on human Pan T cells, the EC50 is 9.08 nM.

For `CC1(C)c2cc(N3CCOCC3)ccc2Nc2c1cc(-c1cnn3cnccc13)c1c2C(=O)NC1` [Example 53], on HPK1 (read-out: HPK1, IC50), the IC50 amounted to 7.97 nM. The EC50 in the assay with human Pan T cells stood at 5.54 nM.

Take `Cc1ccnn2c(-c3cc4c(c5c3CNC5=O)Nc3ccc(N5CCOCC5)cc3C4(C)C)cnc12` [Example 54]: the IC50 on HPK1 (read-out: HPK1, IC50) was found to be 3.81 nM. Further, the EC50 in the assay with human Pan T cells was 6.53 nM.

On to `CN1CCN(c2ccc3c(c2)C(C)(C)c2cc(-c4cnn5cccnc45)c4c(c2N3)C(=O)NC4)C(=O)C1` [Example 55], for which the IC50 at HPK1 (read-out: HPK1, IC50) came out at 7.55 nM. Further, in the assay with human Pan T cells, the EC50 came to 40.3 nM.

Take `CC1(C)c2cc(NC(=O)CC3CC3)ccc2Nc2c1cc(-c1cnn3cccnc13)c1c2C(=O)NC1` [Example 56]: at HPK1 (read-out: HPK1, IC50), the IC50 was determined as 11.5 nM. In the assay on human Pan T cells, the EC50 was 28 nM.

Consider `CC1(C)c2cc(CN3CCNCC3)ccc2Nc2c1cc(-c1cnn3cccnc13)c1c2C(=O)NC1` [Example 57], for which the IC50 at HPK1 (read-out: HPK1, IC50) was 11 nM. Also, the EC50 in the assay with human Pan T cells came to 27.1 nM.

In the case of `CC1(C)c2cc(-c3cnn4cccnc34)c3c(c2Nc2cccc(OC4CCNC4)c21)C(=O)NC3` (stereo not shown) [Example 58], the IC50 on HPK1 (read-out: HPK1, IC50) was 4150 nM.

In the case of `CC1(C)c2cc(N3CCOCC3)c(F)cc2Nc2c1cc(-c1cnn3cccnc13)c1c2C(=O)NC1` [Example 59], the IC50 at HPK1 (read-out: HPK1, IC50) was 7.78 nM. In addition, the EC50 in the assay with human Pan T cells came to 6.97 nM.

Take `Cc1ccnc2c(-c3cc4c(c5c3CNC5=O)Nc3ccc(N5CCOCC5)cc3C4(C)C)cnn12` [Example 60]: on HPK1 (read-out: HPK1, IC50), the IC50 amounted to 14.4 nM. Moreover, in the assay on human Pan T cells, the EC50 is 17.9 nM.

For `Cc1cnc2c(-c3cc4c(c5c3CNC5=O)Nc3ccc(N5CCOCC5)cc3C4(C)C)cnn2c1` [Example 61], the IC50 at HPK1 (read-out: HPK1, IC50) stood at 8.55 nM. Besides, the concentration giving a half-maximal response (EC50) with human Pan T cells was 17.7 nM.

With `CC1(C)c2cc(N3CCOCC3)ccc2Nc2c1cc(-c1cnc3cc(F)ccn13)c1c2C(=O)NC1` [Example 62], the IC50 at HPK1 (read-out: HPK1, IC50) stood at 6.08 nM. The EC50 in the assay on human Pan T cells is 3.02 nM.

Take `COc1ccnc2c(-c3cc4c(c5c3CNC5=O)Nc3ccc(N5CCOCC5)cc3C4(C)C)cnn12` [Example 66]: the IC50 at HPK1 (read-out: HPK1, IC50) was 11.1 nM.

As to `CC1(C)c2cc(N3CCOCC3)ccc2Nc2c1cc(-c1cnc3c(=O)n(C(F)F)ccn13)c1c2C(=O)NC1` [Example 258], the EC50 with human Pan T cells was found to be 6.1 nM.

Turning to `COc1nccn2c(-c3cc4c(c5c3CCNC5=O)Nc3ccc(N5CCOCC5)cc3C4(C)C)cnc12` [Example 280], the EC50 in the assay with human Pan T cells came out at 13 nM.

For the compound `CC1(C)c2cc(N3CCOCC3)ccc2Nc2c1cc(-c1cnc3nc(C(F)F)ccn13)c1c2C(=O)NCC1` [Example 282], the EC50 with human Pan T cells turned out to be 44 nM.
